{"source": "ChEMBL document CHEMBL1201862", "about": "“PubChem BioAssay data set” (2004)", "key": {"[1]": {"assay": "off-target signal loss in HeLa-CEM21 co-culture – HeLa F-luc CTL cells, cherry-picked, counter-screen for HIV-1 Env fusion inhibitor project, dose response (AID 652040);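 note: potency for signal decrease marking cytotoxic or nonspecific inhibition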", "type": "functional, cell-based"}, "[2]": {"assay": "blockers of HIV-1 ZM109 envelope-driven cell-cell fusion – HeLa effector, CEM target cells, luciferase, cherry-pick, dose response (AID 652058)", "type": "functional, cell-based"}, "Cytochrome P450 2D6": {"biological_target": "Cytochrome P450 2D6 (Homo sapiens, UniProt P10635)"}, "[3]": {"assay": "blockers of HIV-1 envelope-mediated cell-cell fusion – cherry-pick, dose response (AID 652057)", "type": "functional, cell-based"}, "[4]": {"assay": "HIV-1 AD8 envelope cell-cell fusion blockers – cherry-pick, dose response (AID 652062);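 note: potency is for inhibitors of fusion seen as a drop in luminescence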", "type": "functional, cell-based"}, "[5]": {"assay": "viability loss in CEM21 cells – cell-based, CellTiter-Glo luminescence, cherry-picked, cytotoxicity control for viral fusion inhibitor project, dose response (AID 652042);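 note: potency for signal decrease meaning cytotoxicity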", "type": "functional"}, "Cytochrome P450 1A2": {"biological_target": "T1, Cytochrome P450 1A2 (Homo sapiens, UniProt P05177)", "T1 sequence (P05177 whole entry)": "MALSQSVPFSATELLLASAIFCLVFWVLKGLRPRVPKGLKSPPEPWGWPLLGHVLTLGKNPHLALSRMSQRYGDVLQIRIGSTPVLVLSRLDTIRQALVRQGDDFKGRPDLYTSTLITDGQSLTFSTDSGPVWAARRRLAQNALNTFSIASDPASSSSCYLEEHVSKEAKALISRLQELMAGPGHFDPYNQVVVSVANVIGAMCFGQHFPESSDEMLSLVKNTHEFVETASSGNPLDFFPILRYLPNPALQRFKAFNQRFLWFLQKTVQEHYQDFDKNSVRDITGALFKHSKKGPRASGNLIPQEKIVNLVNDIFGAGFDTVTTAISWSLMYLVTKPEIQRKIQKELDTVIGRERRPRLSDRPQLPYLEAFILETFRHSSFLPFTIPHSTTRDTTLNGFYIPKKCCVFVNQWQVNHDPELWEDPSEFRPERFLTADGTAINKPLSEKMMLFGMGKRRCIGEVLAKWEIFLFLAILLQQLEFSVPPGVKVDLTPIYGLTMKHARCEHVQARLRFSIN"}, "Cytochrome P450 2C9 [6]": {"biological_target": "T2, Cytochrome P450 2C9 (Homo sapiens, UniProt P11712)", "T2 sequence (P11712 whole entry)": "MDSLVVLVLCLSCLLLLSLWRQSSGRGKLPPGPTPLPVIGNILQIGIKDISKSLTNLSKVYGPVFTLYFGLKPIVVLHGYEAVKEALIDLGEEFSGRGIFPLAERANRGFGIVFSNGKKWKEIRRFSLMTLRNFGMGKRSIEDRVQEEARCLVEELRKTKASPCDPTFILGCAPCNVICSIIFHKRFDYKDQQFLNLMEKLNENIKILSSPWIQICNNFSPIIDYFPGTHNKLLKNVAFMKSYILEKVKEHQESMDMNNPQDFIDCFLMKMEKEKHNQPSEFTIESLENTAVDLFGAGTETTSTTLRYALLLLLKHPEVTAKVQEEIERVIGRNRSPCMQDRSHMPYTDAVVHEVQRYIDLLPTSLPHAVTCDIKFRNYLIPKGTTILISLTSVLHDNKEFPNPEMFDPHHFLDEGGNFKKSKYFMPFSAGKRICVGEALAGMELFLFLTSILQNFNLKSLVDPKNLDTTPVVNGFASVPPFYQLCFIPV"}, "Cytochrome P450 2C19": {"biological_target": "Cytochrome P450 2C19 (Homo sapiens, UniProt P33261)", "sequence (P33261 whole entry)": "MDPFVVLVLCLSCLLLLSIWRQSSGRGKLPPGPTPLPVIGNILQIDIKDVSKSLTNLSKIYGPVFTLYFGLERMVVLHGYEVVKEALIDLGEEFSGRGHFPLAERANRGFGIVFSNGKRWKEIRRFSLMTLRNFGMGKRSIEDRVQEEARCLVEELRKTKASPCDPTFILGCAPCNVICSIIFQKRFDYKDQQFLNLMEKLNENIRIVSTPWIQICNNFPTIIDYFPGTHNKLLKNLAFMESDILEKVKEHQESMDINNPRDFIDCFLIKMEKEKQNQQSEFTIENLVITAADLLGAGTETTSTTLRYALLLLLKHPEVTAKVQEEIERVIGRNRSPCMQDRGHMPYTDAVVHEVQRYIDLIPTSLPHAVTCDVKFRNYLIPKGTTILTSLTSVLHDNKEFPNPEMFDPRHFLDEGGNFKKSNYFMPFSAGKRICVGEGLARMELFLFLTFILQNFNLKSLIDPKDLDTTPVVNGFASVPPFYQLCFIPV", "assay": "Cytochrome panel assay with activity outcomes. Panel member name: p450-cyp2c19 Compounds with AC50 equal or less than 10 uM are considered active", "type": "functional"}, "[7]": {"biological_target": "Peroxisome proliferator-activated receptor gamma/Nuclear receptor coactivator 2 (Homo sapiens, UniProt P37231)", "sequence (P37231 whole entry)": "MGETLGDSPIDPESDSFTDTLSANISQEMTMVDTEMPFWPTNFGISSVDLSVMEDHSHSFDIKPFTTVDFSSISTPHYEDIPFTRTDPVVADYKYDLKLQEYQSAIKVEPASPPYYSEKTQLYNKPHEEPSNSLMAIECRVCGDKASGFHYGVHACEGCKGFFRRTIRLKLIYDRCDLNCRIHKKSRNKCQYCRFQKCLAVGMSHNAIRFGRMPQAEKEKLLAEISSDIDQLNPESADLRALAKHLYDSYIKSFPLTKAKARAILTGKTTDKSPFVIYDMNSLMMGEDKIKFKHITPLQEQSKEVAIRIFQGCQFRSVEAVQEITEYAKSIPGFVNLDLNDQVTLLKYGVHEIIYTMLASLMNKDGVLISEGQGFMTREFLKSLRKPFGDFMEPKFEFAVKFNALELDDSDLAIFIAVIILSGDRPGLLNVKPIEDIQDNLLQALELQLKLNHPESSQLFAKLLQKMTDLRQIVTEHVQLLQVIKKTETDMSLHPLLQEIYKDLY", "sequence (Q15596 whole entry, further chain)": "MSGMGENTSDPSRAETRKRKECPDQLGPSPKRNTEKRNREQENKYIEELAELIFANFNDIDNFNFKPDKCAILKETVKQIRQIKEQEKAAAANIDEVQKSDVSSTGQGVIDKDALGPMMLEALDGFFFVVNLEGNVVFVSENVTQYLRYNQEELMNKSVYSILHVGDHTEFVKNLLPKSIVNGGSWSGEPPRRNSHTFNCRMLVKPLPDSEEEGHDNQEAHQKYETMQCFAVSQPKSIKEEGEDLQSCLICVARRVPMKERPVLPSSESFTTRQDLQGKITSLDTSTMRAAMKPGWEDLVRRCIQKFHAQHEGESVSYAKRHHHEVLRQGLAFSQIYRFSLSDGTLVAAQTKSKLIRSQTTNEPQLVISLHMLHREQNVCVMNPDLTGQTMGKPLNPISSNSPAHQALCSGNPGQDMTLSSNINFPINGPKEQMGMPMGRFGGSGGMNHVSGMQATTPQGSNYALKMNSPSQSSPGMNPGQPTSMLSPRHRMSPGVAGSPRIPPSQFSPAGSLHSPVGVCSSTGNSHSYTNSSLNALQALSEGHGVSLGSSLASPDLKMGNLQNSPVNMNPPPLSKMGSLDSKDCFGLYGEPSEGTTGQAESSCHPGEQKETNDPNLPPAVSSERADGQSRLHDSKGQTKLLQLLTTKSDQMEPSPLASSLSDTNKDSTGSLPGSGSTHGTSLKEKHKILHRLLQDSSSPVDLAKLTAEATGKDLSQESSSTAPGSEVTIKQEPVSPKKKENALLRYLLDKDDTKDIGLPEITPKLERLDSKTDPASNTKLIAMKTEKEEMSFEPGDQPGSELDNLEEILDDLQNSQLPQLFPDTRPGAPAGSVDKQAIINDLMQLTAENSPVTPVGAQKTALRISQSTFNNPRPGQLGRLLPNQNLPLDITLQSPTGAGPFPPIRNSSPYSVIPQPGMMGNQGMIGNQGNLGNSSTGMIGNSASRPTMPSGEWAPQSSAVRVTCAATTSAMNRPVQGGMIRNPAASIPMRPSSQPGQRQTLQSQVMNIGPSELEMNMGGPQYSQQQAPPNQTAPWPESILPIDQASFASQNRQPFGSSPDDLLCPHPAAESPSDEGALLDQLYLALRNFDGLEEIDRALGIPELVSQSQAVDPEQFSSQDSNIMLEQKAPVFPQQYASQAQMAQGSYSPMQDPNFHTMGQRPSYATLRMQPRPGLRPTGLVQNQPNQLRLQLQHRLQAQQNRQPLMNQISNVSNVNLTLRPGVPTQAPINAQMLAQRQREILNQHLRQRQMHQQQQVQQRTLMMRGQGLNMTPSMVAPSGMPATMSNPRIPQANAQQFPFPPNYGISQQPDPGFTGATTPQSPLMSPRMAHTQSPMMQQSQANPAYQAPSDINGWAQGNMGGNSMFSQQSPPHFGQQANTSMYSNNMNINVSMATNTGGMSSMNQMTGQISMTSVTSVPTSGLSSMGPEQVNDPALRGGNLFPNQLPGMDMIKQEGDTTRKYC", "assay": "(§1) TR-FRET dose response biochemical High Throughput Screening assay for agonists of the steroid receptor coactivator 2 (SRC-2) recruitment by the peroxisome proliferator-activated receptor gamma (PPAR gamma): non-selective agonists. [Related pubchem assays: 1297, 1032 ]", "type": "functional"}, "[8]": {"biological_target": "Peroxisome proliferator-activated receptor gamma/Nuclear receptor coactivator 1 (Homo sapiens, UniProt P37231)", "sequence (P37231 whole entry)": "as the sequence (P37231 whole entry) above", "sequence (Q15788 whole entry, further chain)": "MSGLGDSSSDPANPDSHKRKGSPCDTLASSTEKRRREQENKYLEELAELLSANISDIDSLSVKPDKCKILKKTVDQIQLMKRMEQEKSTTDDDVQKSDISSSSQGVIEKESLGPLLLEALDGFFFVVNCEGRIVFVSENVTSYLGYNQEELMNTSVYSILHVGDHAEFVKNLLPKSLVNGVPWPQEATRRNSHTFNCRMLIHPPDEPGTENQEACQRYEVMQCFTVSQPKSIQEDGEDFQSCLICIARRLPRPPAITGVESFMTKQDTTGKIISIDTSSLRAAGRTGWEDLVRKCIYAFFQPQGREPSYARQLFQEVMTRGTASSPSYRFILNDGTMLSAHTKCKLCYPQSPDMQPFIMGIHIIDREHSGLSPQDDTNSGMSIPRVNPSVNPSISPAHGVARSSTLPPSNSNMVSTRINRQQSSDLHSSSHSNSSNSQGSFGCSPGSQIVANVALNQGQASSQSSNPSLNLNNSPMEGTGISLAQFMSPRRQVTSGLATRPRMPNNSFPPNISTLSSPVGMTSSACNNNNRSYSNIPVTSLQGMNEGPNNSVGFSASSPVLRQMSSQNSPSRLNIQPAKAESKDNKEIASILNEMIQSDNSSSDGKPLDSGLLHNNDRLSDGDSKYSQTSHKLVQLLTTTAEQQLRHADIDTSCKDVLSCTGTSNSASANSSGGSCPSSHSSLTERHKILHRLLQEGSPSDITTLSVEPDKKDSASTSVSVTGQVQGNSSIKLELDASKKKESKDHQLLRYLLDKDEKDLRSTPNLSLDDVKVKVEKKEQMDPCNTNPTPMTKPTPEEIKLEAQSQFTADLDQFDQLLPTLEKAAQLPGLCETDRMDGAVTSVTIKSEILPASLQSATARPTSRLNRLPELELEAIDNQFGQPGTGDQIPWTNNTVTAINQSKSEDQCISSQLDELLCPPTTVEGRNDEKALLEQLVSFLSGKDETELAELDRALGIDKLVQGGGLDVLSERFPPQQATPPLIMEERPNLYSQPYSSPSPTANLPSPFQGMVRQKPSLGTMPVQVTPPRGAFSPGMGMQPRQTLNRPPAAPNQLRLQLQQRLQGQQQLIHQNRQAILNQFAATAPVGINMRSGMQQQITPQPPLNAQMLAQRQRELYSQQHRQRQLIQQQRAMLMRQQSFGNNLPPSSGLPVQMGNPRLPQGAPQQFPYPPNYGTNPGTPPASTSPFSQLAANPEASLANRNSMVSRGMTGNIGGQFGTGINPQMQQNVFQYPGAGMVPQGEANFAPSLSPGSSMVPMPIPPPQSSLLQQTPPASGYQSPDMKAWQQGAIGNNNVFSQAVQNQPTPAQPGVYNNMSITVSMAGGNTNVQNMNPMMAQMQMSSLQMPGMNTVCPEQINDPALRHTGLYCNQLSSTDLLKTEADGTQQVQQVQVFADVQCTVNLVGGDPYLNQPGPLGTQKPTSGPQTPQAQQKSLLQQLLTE", "assay": "as §1, with “1 (SRC-1)” for “2 (SRC-2)”, “assays (depositor defined):AID1300, AID1808, AID504735, AID631]” for “assays: 1297, 1032 ]”", "type": "protein assay"}, "[9]": {"biological_target": "Peroxisome proliferator-activated receptor gamma/Nuclear receptor coactivator 3 (Homo sapiens, UniProt P37231)", "assay": "as §1, with “3 (SRC-3)” for “2 (SRC-2)”, “1301 (Confirmation screen.), 1048 (Primary screen.)]” for “1297, 1032 ]”", "type": "functional"}, "[10]": {"biological_target": "DNA dC->dU-editing enzyme APOBEC-3A (Homo sapiens, UniProt P31941)", "assay": "Dose Response confirmation of small molecule APOBEC3A DNA Deaminase Inhibitors via a fluorescence-based single-stranded DNA deaminase assay. [Related pubchem assays (depositor defined):AID493011, AID493024]", "type": "functional"}, "[11]": {"biological_target": "DNA dC->dU-editing enzyme APOBEC-3G (Homo sapiens, UniProt Q9HC16)", "type": "functional"}, "HeLa": {"tested_on": "HeLa", "assay": "ATP-based viability loss in HeLa cells – cell-based, CellTiter-Glo luminescence, cherry-pick samples, cytotoxicity control for MITF activator project, dose response (AID 540259)", "type": "functional", "details": "Homo sapiens"}, "HEK293 [12]": {"tested_on": "HEK293", "assay": "NOD2 signaling inhibitors in MDP-stimulated cells, cell-based, uHTS, luminescence (AID 2001)", "type": "functional", "details": "Homo sapiens"}, "HEK293 [13]": {"tested_on": "HEK293", "assay": "cells", "type": "functional, cell-based", "details": "Homo sapiens"}, "HEK293 [14]": {"tested_on": "HEK293", "assay": "inhibition of NOD1-driven NF-kB reporter – cell-based, luminescence, uHTS, primary screen (AID 1578)", "type": "functional", "details": "Homo sapiens"}, "HEK293 [15]": {"tested_on": "HEK293", "assay": "cells", "type": "functional, cell-based", "details": "Homo sapiens", "remark": "listed apart in the source"}, "[16]": {"biological_target": "T3, Alkaline phosphatase, tissue-nonspecific isozyme (Homo sapiens, UniProt P05186)", "T3 sequence (P05186 whole entry)": "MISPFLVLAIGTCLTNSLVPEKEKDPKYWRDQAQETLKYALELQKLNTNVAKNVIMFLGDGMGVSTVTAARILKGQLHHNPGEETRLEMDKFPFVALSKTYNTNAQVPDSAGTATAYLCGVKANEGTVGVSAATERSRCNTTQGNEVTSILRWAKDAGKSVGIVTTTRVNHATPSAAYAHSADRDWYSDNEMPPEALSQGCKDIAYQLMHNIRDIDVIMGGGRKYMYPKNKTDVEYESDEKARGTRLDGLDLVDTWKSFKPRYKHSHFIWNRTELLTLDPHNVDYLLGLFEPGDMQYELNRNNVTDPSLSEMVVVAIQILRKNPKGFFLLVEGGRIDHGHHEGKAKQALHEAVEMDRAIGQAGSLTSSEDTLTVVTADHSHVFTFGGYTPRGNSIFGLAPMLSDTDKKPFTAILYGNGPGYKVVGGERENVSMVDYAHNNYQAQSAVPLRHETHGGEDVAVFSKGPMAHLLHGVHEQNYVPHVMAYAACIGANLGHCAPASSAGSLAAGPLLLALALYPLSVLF", "assay": "potency against alkaline phosphatase TNAP – biochemical, luminescent, dose response, SAR follow-up (AID 1056)"}, "[17]": {"biological_target": "Alkaline phosphatase, placental type (Homo sapiens, UniProt P05187)", "assay": "human placental alkaline phosphatase inhibition – biochemical, luminescence, confirmation (AID 1512)", "type": "functional"}, "Cytochrome P450 2C9 [18]": {"biological_target": "T2, Cytochrome P450 2C9", "remark": "listed apart in the source"}, "Cytochrome P450 3A4": {"biological_target": "Cytochrome P450 3A4 (Homo sapiens, UniProt P08684)"}, "[19]": {"biological_target": "Glucose-6-phosphate 1-dehydrogenase (Homo sapiens, UniProt P11413)", "assay": "inhibition of Homo sapiens G6PD, dose series – biochemical, fluorescence, selectivity assay for P. falciparum G6PD inhibitor project, dose response (AID 504792)", "type": "functional"}}, "note": "The source made the active and inactive calls."}
{"smiles": "COc1ccc2nc(NC(=O)C3CCN(S(=O)(=O)c4cccc5nsnc45)CC3)sc2c1", "values": [{"measurement": "AC50", "setting": "[1]", "result": "> 70 µM (inactive)"}, {"measurement": "AC50", "setting": "[2]", "result": "1.9 µM (active)"}, {"measurement": "AC50", "setting": "Cytochrome P450 2D6", "result": "inconclusive"}, {"measurement": "AC50", "setting": "[3]", "result": "65.4 µM (active)"}, {"measurement": "AC50", "setting": "[4]", "result": "4 µM (active)"}, {"measurement": "AC50", "setting": "[5]", "result": "41.8 µM (active)"}, {"measurement": "AC50", "setting": "Cytochrome P450 1A2", "result": "3.16 µM (inconclusive)"}]}
{"smiles": "Cc1ccc(Sc2ccc(NC(=O)c3ccc(S(C)(=O)=O)cc3Cl)cc2)cc1", "values": [{"measurement": "AC50", "setting": "Cytochrome P450 2C9 [6]", "result": "inconclusive"}, {"measurement": "AC50", "setting": "Cytochrome P450 2C19; read-out: AC50", "result": "39.8 µM (inconclusive)"}, {"measurement": "EC50", "setting": "[7]", "result": "5.64 µM (active)"}, {"measurement": "EC50", "setting": "[8]", "result": "5.96 µM (active)"}, {"measurement": "EC50", "setting": "[9]", "result": "> 8.82 µM (not active)"}]}
{"smiles": "C[N+]1(CCCOC(=O)C2(c3ccccc3)CCCC2)CCOCC1", "values": [{"measurement": "IC50", "setting": "[10]", "result": "1.61 µM (active)"}, {"measurement": "IC50", "setting": "[11]", "result": "1.99 µM (active)"}]}
{"smiles": "Cn1c(=O)cc(SCC(=O)NCCCN2CCN(c3ccc(F)cc3)CC2)c2ccccc21", "values": [{"measurement": "EC50", "setting": "[7]", "result": "> 26.5 µM (not active)"}, {"measurement": "EC50", "setting": "[8]", "result": "> 79.4 µM (inactive)"}, {"measurement": "EC50", "setting": "[9]", "result": "> 79.4 µM (not active)"}]}
{"smiles": "Cc1cccc(C(=O)Nc2sc3c(c2C#N)CCCCC3)c1", "values": [{"measurement": "AC50", "setting": "HeLa", "result": "42.1 µM (active)"}]}
{"smiles": "CC(C)CNC(=O)O", "values": [{"measurement": "AC50", "setting": "Cytochrome P450 2C19", "result": "inconclusive"}, {"measurement": "AC50", "setting": "Cytochrome P450 2D6", "result": "inconclusive"}]}
{"smiles": "COc1cc(C(=O)NCCOc2cc(C)ccc2C(C)C)cc(OC)c1OC", "values": [{"measurement": "IC50", "setting": "HEK293 [12]", "result": "5.42 µM (active)"}, {"measurement": "IC50", "setting": "HEK293 [13]", "result": "12 µM (active)"}, {"measurement": "EC50", "setting": "HEK293 [14]", "result": "3.03 µM (active)"}, {"measurement": "IC50", "setting": "HEK293 [15]", "result": "5.52 µM (active)"}]}
{"smiles": "C=CCn1c(SCC(=O)c2ccc(O)c(O)c2)nnc1-c1cccc(C)c1", "values": [{"measurement": "IC50", "setting": "[16]", "result": "17.8 µM (active)"}, {"measurement": "IC50", "setting": "[17]", "result": "5.59 µM (active)"}]}
{"smiles": "CCOC(=O)C1CCN(C(=O)CSc2cc(=O)n(C)c3ccccc23)CC1", "values": [{"measurement": "EC50", "setting": "[7]", "result": "> 79.4 µM (not active)"}, {"measurement": "EC50", "setting": "[8]", "result": "> 79.4 µM (inactive)"}, {"measurement": "EC50", "setting": "[9]", "result": "> 79.4 µM (not active)"}]}
{"smiles": "O=C(OCC(=O)c1ccc([N+](=O)[O-])cc1)/C(=C\\c1ccc(Cl)cc1)NC(=O)c1ccccc1", "values": [{"measurement": "AC50", "setting": "Cytochrome P450 2C9 [18]", "result": "0.0355 µM (inconclusive)"}, {"measurement": "AC50", "setting": "Cytochrome P450 3A4", "result": "22.4 µM (inconclusive)"}, {"measurement": "IC50", "setting": "[19]", "result": "> 80 µM (inactive)"}]}
